assay: Inhibition of [125I]-I binding to ATP-inhibited Potassium channel receptor of Rat brain homogenate

Row | Ki [nM] | Structure (SMILES)
1 | 8.2 | Cc1cnc(C(=O)NCCc2ccc(S(=O)(=O)NC(=O)NC3CCCCC3)cc2)cn1 [GLIPIZIDE]
2 | 2.6 | COc1ccc(I)cc1C(=O)NCCc1ccc(S(=O)(=O)NC(=O)NC2CCCCC2)cc1
3 | 0.608 | COc1ccc(Cl)cc1C(=O)NCCc1ccc(S(=O)(=O)NC(=O)NC2CCCCC2)cc1 [GLYBURIDE]

Source: ChEMBL document CHEMBL1125090, “Expedient synthesis and biochemical properties of an [125I]-labeled analogue of glyburide, a radioligand for ATP-inhibited potassium channels” (J Med Chem, 1990)
